Each compound was assayed against human M4 receptor (Homo sapiens (Human), UniProt P08173) (assay: Radioligand (tritiated N-methylscopolamine) binding assay, M4). Settings: Ki against the M4 receptor; membranes from CHO cells expressing human M4; tritiated N-methylscopolamine 1.5 nM; read-out: Ki.
Outline: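 Ki from displacement of 1.5 nM [3H]N-methylscopolamine on membranes of CHO cells expressing each human receptor. Twelve compound concentrations (10 μM to […]), 90 min at 37° C in 50 mM HEPES, 100 mM NaCl, 5 mM MgCl2, 1 mM EDTA, pH 7.4. Bound ligand was captured by PEI-treated glass-fiber filtration and counted.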

human M4 receptor, sequence (P08173 whole entry): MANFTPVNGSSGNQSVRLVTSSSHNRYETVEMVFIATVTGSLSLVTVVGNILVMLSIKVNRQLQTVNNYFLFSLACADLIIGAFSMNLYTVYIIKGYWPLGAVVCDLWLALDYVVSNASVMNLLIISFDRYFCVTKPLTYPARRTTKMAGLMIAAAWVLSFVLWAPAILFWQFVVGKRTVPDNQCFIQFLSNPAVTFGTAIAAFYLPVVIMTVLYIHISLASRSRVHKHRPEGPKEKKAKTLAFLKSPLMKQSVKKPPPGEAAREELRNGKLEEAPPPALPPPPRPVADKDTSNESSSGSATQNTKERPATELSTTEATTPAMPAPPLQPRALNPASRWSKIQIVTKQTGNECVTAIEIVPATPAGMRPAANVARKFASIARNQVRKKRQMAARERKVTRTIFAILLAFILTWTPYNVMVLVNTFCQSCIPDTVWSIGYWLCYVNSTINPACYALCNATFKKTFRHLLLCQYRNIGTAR

Question: For `C[C@@H]1CN(c2cc(F)c(F)c(F)c2)CCN1C(=O)NCCC1CCN(Cc2ccc(OC(F)(F)F)cc2)CC1` [6-24, (2R)-2-methyl-N-[2-(1-{[4-(trifluoromethoxy)phenyl]methyl}piperidin-4-yl)ethyl]-4-(3,4,5-trifluorophenyl)piperazine-1-carboxamide], which Ki is on record?
Answer: 100 to 1000 nM

Question: `Cc1c(C(=O)NCCC2CCN(Cc3ccccc3)CC2)cnc2cc(-c3ccc(OC(F)(F)F)cc3)nn12` [18-13] was tested. Which Ki did it give?
Answer: 10 to 100 nM

Question: With `C[C@@H]1CN(c2cc(F)c(F)c(F)c2)CCN1C(=O)NCCC1(CO)CCN(Cc2ccccc2)CC1` [3-20, (2R)-N-{2-[1-benzyl-4-(hydroxymethyl)piperidin-4-yl]ethyl}-2-methyl-4-(3,4,5-trifluorophenyl)piperazine-1-carboxamide] as the compound, how does the Ki read?
Answer: 10 to 100 nM

Question: How did the Ki turn out when `N#Cc1ccc(N2CCN(C(=O)NCCC3CCN(Cc4ccccc4)CC3)CC2)cc1` [8-27, N-[2-(1-benzylpiperidin-4-yl)ethyl]-4-(4-cyanophenyl)piperazine-1-carboxamide] was run?
Answer: 100 to 1000 nM

Question: Which Ki does the source give for `Cc1c(C(=O)NCCC2CCN(Cc3ccccc3)CC2)cnc2cc(-c3ccc(Cl)cc3)nn12` [17-4, N-[2-(1-benzylpiperidin-4-yl)ethyl]-2-(4-chlorophenyl)-7-methylpyrazolo[1,5-a]pyrimidine-6-carboxamide] here?
Answer: 10 to 100 nM

Question: Which Ki does the source give for `O=C(NCCC1CCN(Cc2ccccc2)CC1)N1CCC(O)(c2cccc(C(F)(F)F)c2)CC1` [8-19, N-[2-(1-benzylpiperidin-4-yl)ethyl]-4-hydroxy-4-[3-(trifluoromethyl)phenyl]piperidine-1-carboxamide] here?
Answer: 10 to 100 nM

Question: With `C[C@@H]1CN(c2ncc(C(=O)N3CCCC3)cn2)C[C@H](C)N1C(=O)NCCC1CCN(Cc2ccccc2)CC1` [27-2] as the compound, how does the Ki read?
Answer: 100 to 1000 nM

Question: With `COc1ccc(N2CCC(C(=O)NCCC3CCN(Cc4ccccc4)CC3)CC2)nc1` [10-28, N-[2-(1-benzylpiperidin-4-yl)ethyl]-1-(5-methoxypyridin-2-yl)piperidine-4-carboxamide] as the compound, how does the Ki read?
Answer: 100 to 1000 nM

Question: `CC(c1ccccc1)N1CCC(CCNC(=O)c2ccc(OCc3ccccc3)cc2)CC1` (centres unmarked) [11-14, 4-(benzyloxy)-N-{2-[1-(1-phenylethyl)piperidin-4-yl]ethyl}benzamide] was tested. Which Ki did it give?
Answer: 100 to 1000 nM

Question: With `N#Cc1ccc(N2CCC(C(=O)NCCC3CCN(Cc4ccccc4)CC3)CC2)cc1F` [10-78, N-[2-(1-benzylpiperidin-4-yl)ethyl]-1-(4-cyano-3-fluorophenyl)piperidine-4-carboxamide] as the compound, how does the Ki read?
Answer: 10 to 100 nM

Question: For `C[C@@H]1CN(c2ccc(F)c(C#N)c2)CCN1C(=O)N(C)CCC1CCN(Cc2ccccc2)CC1` [3-4, (2R)-N-[2-(1-benzylpiperidin-4-yl)ethyl]-4-(3-cyano-4-fluorophenyl)-N,2-dimethylpiperazine-1-carboxamide], which Ki is on record?
Answer: 100 to 1000 nM

Question: `N#Cc1cc(C(F)(F)F)ccc1N1CCN(C(=O)NCCC2CCN(Cc3ccccc3)CC2)CC1` [8-12, N-[2-(1-benzylpiperidin-4-yl)ethyl]-4-[2-cyano-4-(trifluoromethyl)phenyl]piperazine-1-carboxamide] was tested. Which Ki did it give?
Answer: 10 to 100 nM

Question: How did the Ki turn out when `Cc1ccc(N2CCN(C(=O)NCCC3CCN(Cc4ccccc4)CC3)CC2)c(CO)c1` [8-43, N-[2-(1-benzylpiperidin-4-yl)ethyl]-4-[2-(hydroxymethyl)-4-methylphenyl]piperazine-1-carboxamide] was run?
Answer: 100 to 1000 nM

Question: For `CNC(=O)c1cnc(N2CCN(C(=O)NCCC3CCN(Cc4ccccc4)CC3)[C@H](C)C2)nc1` [27-10], which Ki is on record?
Answer: 100 to 1000 nM

Question: `Cc1c(C(=O)NCCC2CCN(Cc3ccccc3)CC2)cnc2cc(-c3ccccc3C(F)(F)F)nn12` [18-11] was tested. Which Ki did it give?
Answer: 10 to 100 nM

Question: For `O=C(NCCC1CCN(Cc2ccccc2)CC1)C1CCN(c2ccccc2OC(F)(F)F)CC1` [10-70, N-[2-(1-benzylpiperidin-4-yl)ethyl]-1-[2-(trifluoromethoxy)phenyl]piperidine-4-carboxamide], which Ki is on record?
Answer: 100 to 1000 nM

Question: With `C[C@@H]1CN(c2cccc(F)c2F)CCN1C(=O)NCCC1CCN(Cc2ccccc2)CC1` [4-37, (2R)-N-[2-(1-benzylpiperidin-4-yl)ethyl]-4-(2,3-difluorophenyl)-2-methylpiperazine-1-carboxamide] as the compound, how does the Ki read?
Answer: 10 to 100 nM

Question: For `O=C(NC1CCN(c2ccc(F)cc2)CC1)OCCC1CCN(Cc2ccccc2)CC1` [12-6, 2-(1-benzylpiperidin-4-yl)ethyl N-[1-(4-fluorophenyl)piperidin-4-yl]carbamate], which Ki is on record?
Answer: 100 to 1000 nM

Question: With `C[C@@H]1CN(c2ncc(C(F)(F)F)cn2)C[C@@H](C)N1C(=O)NCCC1CCN(Cc2ccccc2)CC1` [26-5, (2R,6R)-N-[2-(1-benzylpiperidin-4-yl)ethyl]-2,6-dimethyl-4-[5-(trifluoromethyl)pyrimidin-2-yl]piperazine-1-carboxamide] as the compound, how does the Ki read?
Answer: < 10 nM

Question: `COc1nc(N2C[C@@H](C)N(C(=O)NCCC3CCN(Cc4ccccc4)CC3)[C@@H](C)C2)ncc1C#N` [4-69, (2R,6S)-N-[2-(1-benzylpiperidin-4-yl)ethyl]-4-(5-cyano-4-methoxypyrimidin-2-yl)-2,6-dimethylpiperazine-1-carboxamide] was tested. Which Ki did it give?
Answer: 10 to 100 nM

Question: How did the Ki turn out when `O=C(NCCC1CCN(Cc2ccccc2)CC1)C1CCN(c2ccc(C(F)(F)F)cn2)CC1` [10-24, N-[2-(1-benzylpiperidin-4-yl)ethyl]-1-[5-(trifluoromethyl)pyridin-2-yl]piperidine-4-carboxamide] was run?
Answer: 10 to 100 nM

Question: Which Ki does the source give for `COc1cccc(CN2CCC(CCNC(=O)C3CCN(c4ccc(OC(F)(F)F)cc4)CC3)CC2)n1` [11-30, N-(2-{l-[(6-methoxypyridin-2-yl)methyl]piperidin-4-yl}ethyl)-1-[4-(trifluoromethoxy)phenyl]piperidine-4-carboxamide] here?
Answer: 100 to 1000 nM

Question: Which Ki does the source give for `O=C(NCCC1CCN(Cc2cccc3c2OCCO3)CC1)c1ccc(Oc2ccccc2)cc1` [11-18, N-{2-[1-(2,3-dihydro-1,4-benzodioxin-5-ylmethyl)piperidin-4-yl]ethyl}-4-phenoxybenzamide] here?
Answer: 100 to 1000 nM

Question: For `COc1ccc(N2CCC(C(=O)NCCC3CCN(Cc4ccccc4)CC3)CC2)cc1F` [10-39, N-[2-(1-benzylpiperidin-4-yl)ethyl]-1-(3-fluoro-4-methoxyphenyl)piperidine-4-carboxamide], which Ki is on record?
Answer: 10 to 100 nM

Question: With `C[C@@H]1CN(c2ncc(Br)c(Cl)n2)CCN1C(=O)NCCC1CCN(Cc2ccccc2)CC1` [5-10, (2R)-N-[2-(1-benzylpiperidin-4-yl)ethyl]-4-(5-bromo-4-chloropyrimidin-2-yl)-2-methylpiperazine-1-carboxamide] as the compound, how does the Ki read?
Answer: 100 to 1000 nM

Question: Which Ki does the source give for `Cc1ccc(-c2ccc(C(=O)NCCC3CCN(Cc4ccccc4)CC3)c(F)c2)cc1` [9-40, N-[2-(1-benzylpiperidin-4-yl)ethyl]-2-fluoro-4-(4-methylphenyl)benzamide] here?
Answer: 10 to 100 nM

Question: How did the Ki turn out when `C[C@@H]1CN(c2cc(F)c(F)c(F)c2)CCN1C(=O)NCCC1CCN(Cc2ccc(C#N)cc2)CC1` [6-2, (2R)-N-(2-{1-[(4-cyanophenyl)methyl]piperidin-4-yl}ethyl)-2-methyl-4-(3,4,5-trifluorophenyl)piperazine-1-carboxamide] was run?
Answer: 100 to 1000 nM

Question: Which Ki does the source give for `CN(C(=O)C1CCN(c2ccc(OC(F)(F)F)cc2)CC1)C1CCN(C2CCN(Cc3ccccc3)CC2)C1` (centres unmarked) [9-23, N-[1-(1-benzylpiperidin-4-yl)pyrrolidin-3-yl]-N-methyl-1-[4-(trifluoromethoxy)phenyl]piperidine-4-carboxamide] here?
Answer: 10 to 100 nM

Question: With `Cc1nnc(C(c2ccccc2)N2CCC(CCNC(=O)N3CCN(c4cc(F)c(F)c(F)c4)C[C@H]3C)CC2)o1` (stereo partly drawn) [6-19, (2R)-2-methyl-N-(2-{1-[(5-methyl-1,3,4-oxadiazol-2-yl)(phenyl)methyl]piperidin-4-yl}ethyl)-4-(3,4,5-trifluorophenyl)piperazine-1-carboxamide] as the compound, how does the Ki read?
Answer: 100 to 1000 nM

Question: How did the Ki turn out when `C[C@@H]1CN(c2ncc(C#N)cn2)C[C@H](C)N1C(=O)NCCC1CCN(Cc2cccnc2F)CC1` [6-64, (2R,6S)-4-(5-cyanopyrimidin-2-yl)-N-(2-{1-[(2-fluoropyridin-3-yl)methyl]piperidin-4-yl}ethyl)-2,6-dimethylpiperazine-1-carboxamide] was run?
Answer: 100 to 1000 nM

Question: How did the Ki turn out when `C[C@@H]1CN(c2cc(F)c(F)c(F)c2)CCN1C(=O)NCCC1CCN(Cc2c(F)cccc2F)CC1` [6-28, (2R)-N-(2-{1-[(2,6-difluorophenyl)methyl]piperidin-4-yl}ethyl)-2-methyl-4-(3,4,5-trifluorophenyl)piperazine-1-carboxamide] was run?
Answer: 100 to 1000 nM

Question: For `O=C(NCCC1CCN(Cc2ccccc2)CC1)N1CCN(c2ccccc2F)CC1` [8-34, N-[2-(1-benzylpiperidin-4-yl)ethyl]-4-(2-fluorophenyl)piperazine-1-carboxamide], which Ki is on record?
Answer: 100 to 1000 nM

Question: `O=C(NCCC1CCN(Cc2ccc3[nH]ccc3c2)CC1)C1CCN(c2ccc(OC(F)(F)F)cc2)CC1` [11-22, N-{2-[1-(1H-indol-5-ylmethyl)piperidin-4-yl]ethyl}-1-[4-(trifluoromethoxy)phenyl]piperidine-4-carboxamide] was tested. Which Ki did it give?
Answer: 100 to 1000 nM

Question: How did the Ki turn out when `CCN(C)C(=O)c1cnc(N2CCN(C(=O)NCCC3CCN(Cc4ccccc4)CC3)[C@H](C)C2)nc1` [27-9] was run?
Answer: 100 to 1000 nM

Question: For `N#Cc1cc(Cl)ccc1N1CCN(C(=O)NCCC2CCN(Cc3ccccc3)CC2)CC1` [8-7, N-[2-(1-benzylpiperidin-4-yl)ethyl]-4-(4-chloro-2-cyanophenyl)piperazine-1-carboxamide], which Ki is on record?
Answer: 100 to 1000 nM

Question: How did the Ki turn out when `O=C(NCCC1CCN(Cc2ccccc2)CC1)[C@@H]1CCN(c2cccc(OC(F)(F)F)c2)C1` [10-49, (3R)-N-[2-(1-benzylpiperidin-4-yl)ethyl]-1-[3-(trifluoromethoxy)phenyl]pyrrolidine-3-carboxamide] was run?
Answer: 100 to 1000 nM

Question: With `COC(=O)c1cc(Cl)nc(N2CCN(C(=O)NCCC3CCN(Cc4ccccc4)CC3)[C@H](C)C2)n1` [5-11, methyl 2-[(3R)-4-{[2-(1-benzylpiperidin-4-yl)ethyl]carbamoyl}-3-methylpiperazin-1-yl]-6-chloropyrimidine-4-carboxylate] as the compound, how does the Ki read?
Answer: 100 to 1000 nM

Question: With `C[C@@H]1CN(c2cc(F)c(F)c(F)c2)CCN1C(=O)NCCC1CCN(Cc2ccccc2C#N)CC1` [6-29, (2R)-N-(2-{1-[(2-cyanophenyl)methyl]piperidin-4-yl}ethyl)-2-methyl-4-(3,4,5-trifluorophenyl)piperazine-1-carboxamide] as the compound, how does the Ki read?
Answer: 100 to 1000 nM

— patent US11033539B2, “Compounds of formulas (VII), (VIII), (IX), (XI), (XII), (XIII), and (XIV) as muscarinic receptor 4(M4) antagonists for treating neurological diseases” (Neurocrine Biosciences, Inc., priority 2015, dated 2021)
